Assay results reported in the NIST ThermoML archive (doi:10.1016/j.fluid.2011.12.008).
± gives the expanded uncertainty stated by the source.

Conditions: 298.15 K; 101.33 kPa; Liquid; Vibrating tube method
`CCCC[N+]1(C)CCCC1.O=S(=O)([N-]S(=O)(=O)C(F)(F)F)C(F)(F)F` showed a mass density of 1394.3 ± 0.6 kg/m3. Work on `CCCCCC[n+]1ccn(C)c1.O=S(=O)([N-]S(=O)(=O)C(F)(F)F)C(F)(F)F` yielded a mass density of 1371.6 ± 0.7 kg/m3. `CCC[N+](C)(C)CC.O=S(=O)([N-]S(=O)(=O)C(F)(F)F)C(F)(F)F` gave a mass density of 1403.5 ± 0.6 kg/m3. With `CCCCCC[N+]1(C)CCCC1.O=S(=O)([N-]S(=O)(=O)C(F)(F)F)C(F)(F)F` the mass density was 1336 ± 1.6 kg/m3.
